Biological target: T1, Human M4 (Homo sapiens, UniProt P08173)
T1 construct: expressed in transfected cells; host or cells: CHO-K1 (ATCC), co-transfected with chimeric G protein Gqi5
T1 sequence (P08173 1-479): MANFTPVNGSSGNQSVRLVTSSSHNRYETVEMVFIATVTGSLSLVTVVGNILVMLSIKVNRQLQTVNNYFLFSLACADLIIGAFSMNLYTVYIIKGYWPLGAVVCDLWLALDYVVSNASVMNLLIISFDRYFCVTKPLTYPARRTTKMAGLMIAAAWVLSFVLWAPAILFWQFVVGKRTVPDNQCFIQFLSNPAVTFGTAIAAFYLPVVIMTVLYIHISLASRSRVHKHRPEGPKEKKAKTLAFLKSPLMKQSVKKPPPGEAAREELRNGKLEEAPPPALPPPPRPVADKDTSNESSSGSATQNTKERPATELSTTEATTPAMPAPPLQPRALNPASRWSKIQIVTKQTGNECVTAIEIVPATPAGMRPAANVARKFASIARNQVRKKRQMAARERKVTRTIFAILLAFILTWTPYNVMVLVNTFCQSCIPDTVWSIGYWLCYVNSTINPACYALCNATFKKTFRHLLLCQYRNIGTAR
Assay: mAChR M4 cell-based functional assay (calcium flux, antagonism of EC80 acetylcholine response)
Details: M4/Gqi5/CHO-K1 cells; for IC50: concentration-dependent decrease of the response elicited by an EC80 concentration of acetylcholine
Outline: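 CHO-K1 cells stably expressing human M4 with chimeric Gqi5, Fluo-4 loaded; calcium flux read on FDSS. Compound (10-point, 1:3 series) added first, then EC20 acetylcholine at 143 s and EC80 at 268 s. IC50 from concentration-dependent decrease of EC80 response, four-parameter logistic fit.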

Human M4 Emin (% ACh maximum at 30 μM) [%]	IC50 [nM]	Molecule
3	58	[2H]C([2H])(C1CCOCC1)N1C[C@H]2C[C@H](Nc3ccc(-c4ccccc4NC(C)=O)nn3)C[C@H]2C1 [Compound B2, N-(2-(6-(((3aR,5s,6aS)-2-((tetrahydro-2H-pyran-4-yl)methyl-d2)octahydrocyclopenta [c]pyrrol-5-yl)amino)pyridazin-3-yl)phenyl)acetamide]
4	120	[2H]C([2H])([2H])C(=O)Nc1ccccc1-c1ccc(N[C@H]2C[C@@H]3CN(CC4CCOCC4)C[C@@H]3C2)nn1 [Compound B3, N-(2-(6-(((3aR,5s,6aS)-2-((tetrahydro-2H-pyran-4-yl)methyl)octahydrocyclopenta [c]pyrrol-5-yl)amino)pyridazin-3-yl)phenyl) acetamide-2,2,2-d3]
4	120	[2H]C([2H])([2H])C(=O)Nc1ccccc1-c1ccc(N[C@H]2C[C@@H]3CN(C([2H])([2H])C4CCOCC4)C[C@@H]3C2)nn1 [Compound B4, N-(2-(6-(((3aR,5s,6aS)-2-((tetrahydro-2H-pyran-4-yl)methyl-d2)octahydrocyclopenta [c]pyrrol-5-yl)amino)pyridazin-3-yl)phenyl) acetamide-2,2,2-d3]
4	1.4	N-methyl-3-(6-(((3aR,5s,6aS)-2-(((S)- tetrahydro-2H-pyran-2-yl)methyl- d2)octahydrocyclopenta[c]pyrrol-5- yl)amino)pyridazin-3-yl)benzamide [Compound A80]

Source: US20240228468A1, “N-(6-((OCTAHYDROCYCLOPENTA[C]PYRROL-5-YI)AMINO)PYRIDAZIN-3-YL)PHENYL)CARBOXAMIDE AND (6- ((OCTAHYDROCYCLOPENTA[C]PYRROL-5-YL)AMINO)PYRIDAZIN-3-YL)BENZAMIDE DERIVATIVES AS MACHR M4 ANTAGONISTS FOR THE TREATMENT OF NEURODEGENERATIVE DISORDERS” (Vanderbilt University, priority 2021, published 2024)
